Columns and labels:
Settings in all cases: Cβ-S lyase activity; 4 mM L-cystine, 100 μM PLP, 30°C
SlACS4 = biological target: T1, SlACS4 (Solanum lycopersicum, UniProt P29535); experiment: pyruvate formation, […],4-dinitrophenylhydrazine, A520; format: biochemical
T1 construct: gene ACS4; recombinant, His or GST tag, from E. coli

AtACS11 = biological target: T2, AtACS11 (Arabidopsis thaliana, UniProt Q9S9U6); experiment: as above; format: biochemical
T2 construct: gene ACS11; recombinant, His or GST tag, from E. coli
T2 sequence (Q9S9U6 1-460): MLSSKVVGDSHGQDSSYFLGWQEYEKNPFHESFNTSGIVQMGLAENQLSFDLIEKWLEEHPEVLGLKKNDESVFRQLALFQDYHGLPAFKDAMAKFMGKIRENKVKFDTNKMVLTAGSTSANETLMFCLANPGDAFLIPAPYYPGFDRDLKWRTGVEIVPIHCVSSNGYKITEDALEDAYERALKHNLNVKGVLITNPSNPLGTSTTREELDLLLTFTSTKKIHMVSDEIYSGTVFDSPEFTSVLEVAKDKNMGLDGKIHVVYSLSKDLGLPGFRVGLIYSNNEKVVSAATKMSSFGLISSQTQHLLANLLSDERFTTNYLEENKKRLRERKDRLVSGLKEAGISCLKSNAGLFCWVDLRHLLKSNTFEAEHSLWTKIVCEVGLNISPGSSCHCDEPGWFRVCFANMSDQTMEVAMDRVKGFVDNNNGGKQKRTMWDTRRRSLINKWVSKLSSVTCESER

MdACS1 = biological target: T3, MdACS1 (Malus domestica, UniProt P37821); experiment: as above; format: biochemical
T3 construct: gene ACS-1; recombinant, His or GST tag, from E. coli
T3 sequence (P37821 1-473): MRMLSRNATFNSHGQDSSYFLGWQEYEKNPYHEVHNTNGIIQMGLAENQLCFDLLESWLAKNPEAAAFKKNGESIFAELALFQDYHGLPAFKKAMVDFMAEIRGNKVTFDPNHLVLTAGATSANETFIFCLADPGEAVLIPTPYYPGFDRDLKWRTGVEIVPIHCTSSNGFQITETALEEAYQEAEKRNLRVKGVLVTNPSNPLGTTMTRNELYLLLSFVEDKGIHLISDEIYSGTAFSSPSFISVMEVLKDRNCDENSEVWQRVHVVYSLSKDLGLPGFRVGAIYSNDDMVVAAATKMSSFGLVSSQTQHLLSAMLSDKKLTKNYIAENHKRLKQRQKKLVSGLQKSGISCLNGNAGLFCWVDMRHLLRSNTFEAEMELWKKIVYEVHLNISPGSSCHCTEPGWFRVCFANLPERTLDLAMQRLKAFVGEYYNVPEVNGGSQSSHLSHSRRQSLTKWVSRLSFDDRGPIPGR

OsACS5 = biological target: T4, OsACS5 (Oryza sativa, UniProt A0A0P0UZP7)
T4 construct: gene ACS5
T4 sequence (A0A0P0UZP7 whole entry): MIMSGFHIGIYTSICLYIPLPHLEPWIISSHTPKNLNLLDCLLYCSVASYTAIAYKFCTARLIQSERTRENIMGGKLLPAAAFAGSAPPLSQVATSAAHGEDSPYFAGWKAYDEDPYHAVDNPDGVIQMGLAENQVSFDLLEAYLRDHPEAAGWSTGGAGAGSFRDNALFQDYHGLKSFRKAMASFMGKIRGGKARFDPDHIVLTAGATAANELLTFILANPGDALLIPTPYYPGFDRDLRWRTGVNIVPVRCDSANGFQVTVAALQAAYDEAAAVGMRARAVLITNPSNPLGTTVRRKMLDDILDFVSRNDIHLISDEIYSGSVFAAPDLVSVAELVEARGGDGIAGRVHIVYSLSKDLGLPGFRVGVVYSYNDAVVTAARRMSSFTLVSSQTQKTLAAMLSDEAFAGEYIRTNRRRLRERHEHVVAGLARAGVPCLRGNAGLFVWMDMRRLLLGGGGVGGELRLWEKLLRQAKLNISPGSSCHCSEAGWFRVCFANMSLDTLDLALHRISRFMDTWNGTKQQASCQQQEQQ

T1 sequence (P29535 whole entry): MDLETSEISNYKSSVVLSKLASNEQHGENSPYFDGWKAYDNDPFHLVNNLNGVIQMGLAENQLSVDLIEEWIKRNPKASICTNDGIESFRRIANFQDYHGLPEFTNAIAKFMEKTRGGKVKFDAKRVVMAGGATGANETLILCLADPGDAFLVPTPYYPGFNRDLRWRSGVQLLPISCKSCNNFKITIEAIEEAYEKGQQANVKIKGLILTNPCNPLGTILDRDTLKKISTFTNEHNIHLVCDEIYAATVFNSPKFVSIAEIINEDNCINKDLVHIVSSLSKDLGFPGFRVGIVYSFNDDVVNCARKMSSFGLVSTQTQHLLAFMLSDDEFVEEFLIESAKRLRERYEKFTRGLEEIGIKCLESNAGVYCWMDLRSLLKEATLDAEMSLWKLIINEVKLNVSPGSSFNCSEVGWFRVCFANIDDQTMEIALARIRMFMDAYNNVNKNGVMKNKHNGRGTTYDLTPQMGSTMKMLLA

## N[C@@H](CSSC[C@H](N)C(=O)O)C(=O)O [L-cystine]
SlACS4
  pyruvate formation, 2,4-dinitrophenylhydrazine, A520: all of them had ACS and Cβ-S lyase dual enzymatic activities
AtACS11
  pyruvate formation, 2,4-dinitrophenylhydrazine, A520: all of them had ACS and Cβ-S lyase dual enzymatic activities
MdACS1
  pyruvate formation, 2,4-dinitrophenylhydrazine, A520: MdACS1 indeed had both ACS and Cβ-S lyase activities in vitro
OsACS5
  pyruvate formation, 2,4-dinitrophenylhydrazine, A520: all of them had ACS and Cβ-S lyase dual enzymatic activities

— article PMC8580319, “Dual activities of ACC synthase: Novel clues regarding the molecular evolution of ACS genes” (Science Advances, 2021)
